Test results published in publication PMC12249917, “Novel Au(I)- and Ag(I)-NHC Complexes with N-Boc-Protected Proline as Potential Candidates for Neurodegenerative Disorders” (International Journal of Molecular Sciences, 2025).
Like-named read-outs stand apart in the source and are kept apart here.

Key:
[1] = molecular target: T1, hMAO-B (Homo sapiens, UniProt P27338); type: biochemical; conditions: for IC50: mean ± S.D., three experiments in triplicate
T1 sequence (P27338 1-520): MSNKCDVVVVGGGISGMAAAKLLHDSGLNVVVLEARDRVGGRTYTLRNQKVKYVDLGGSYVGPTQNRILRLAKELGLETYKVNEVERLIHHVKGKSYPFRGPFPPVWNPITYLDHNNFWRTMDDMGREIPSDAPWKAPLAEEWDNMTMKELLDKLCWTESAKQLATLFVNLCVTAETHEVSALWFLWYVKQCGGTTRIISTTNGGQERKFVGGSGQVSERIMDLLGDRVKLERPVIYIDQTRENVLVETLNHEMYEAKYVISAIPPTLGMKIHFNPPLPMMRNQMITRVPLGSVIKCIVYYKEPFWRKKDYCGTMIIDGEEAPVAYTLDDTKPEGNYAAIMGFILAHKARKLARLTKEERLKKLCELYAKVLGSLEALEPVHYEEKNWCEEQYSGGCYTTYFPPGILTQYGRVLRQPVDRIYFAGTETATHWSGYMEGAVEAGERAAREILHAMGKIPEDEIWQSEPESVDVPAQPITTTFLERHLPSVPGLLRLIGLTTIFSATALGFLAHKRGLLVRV
Procedure: (§1) Altered levels of MAO-A/B are associated with the degeneration of neurotransmitter biogenic amines such as serotonin, noradrenaline, and dopamine and are implicated in several diseases, such as depression, cancer, PD, and AD [27]. With this in mind, we explored the potential of these complexes in inhibiting human MAO (hMAO) isoforms.
(§2) The inhibitory activity of the gold and silver complexes against hMAO-A and hMAO-B was evaluated using a previously published protocol. […] Data analysis was performed using GraphPad PRISM 9 (GraphPad Software®, San Diego, CA, USA). IC50 values were determined from the dose–response curves and were presented as the mean ± SD of three independent experiments, each conducted in triplicate.

[2] = tested on: RAW 264.7 cells; assay: MTT cell viability, RAW 264.7; type: cell-based, murine; conditions: RAW 264.7, MTT, 24 h
Procedure: 3-(4,5-dimethylthiazol-2-yl)-2,5-diphenyl-2H-tetrazolium bromide (MTT) was added to the cells in order to measure the cell viability at 24 h, as previously reported. IC50 values were determined from the dose–response curves for both NO inhibition (%) and the cell viability (%) using GraphPad Prism 9 software (GraphPad Software, La Jolla, CA, USA) and were presented as the mean ± SD of three independent experiments, each conducted in triplicate.
Figure 2 Brown histograms: Anti-inflammatory activity in terms of NO production inhibition (%), measured in vitro using RAW 264.7 murine macrophages. NO production was induced by LPS (1 µg/mL). Data were plotted as % NO inhibition with respect to inhibition with LPS-only treatment. Salmon histograms: MTT assays performed in same experimental conditions in order to verify effect on RAW 264.7 cells’ viability of Indomethacin and tested complexes. Data were plotted as % of cell viability with respect to viability with LPS-only treatment (1 µg/mL). Indomethacin (Ind) was used at concentration of 25 µM, while all other complexes were used at 5 µM, for 24 h. Bars ± SDs are shown (n = 3). ** p < 0.01 and **** p < 0.0001 for complex 3bP and Ind vs. LPS only; not significant (n.s.) where not indicated.

[3] = molecular target: T2, hMAO-A (Homo sapiens, UniProt P21397); assay: hMAO-A inhibitory activity; type: biochemical
T2 sequence (P21397 1-527): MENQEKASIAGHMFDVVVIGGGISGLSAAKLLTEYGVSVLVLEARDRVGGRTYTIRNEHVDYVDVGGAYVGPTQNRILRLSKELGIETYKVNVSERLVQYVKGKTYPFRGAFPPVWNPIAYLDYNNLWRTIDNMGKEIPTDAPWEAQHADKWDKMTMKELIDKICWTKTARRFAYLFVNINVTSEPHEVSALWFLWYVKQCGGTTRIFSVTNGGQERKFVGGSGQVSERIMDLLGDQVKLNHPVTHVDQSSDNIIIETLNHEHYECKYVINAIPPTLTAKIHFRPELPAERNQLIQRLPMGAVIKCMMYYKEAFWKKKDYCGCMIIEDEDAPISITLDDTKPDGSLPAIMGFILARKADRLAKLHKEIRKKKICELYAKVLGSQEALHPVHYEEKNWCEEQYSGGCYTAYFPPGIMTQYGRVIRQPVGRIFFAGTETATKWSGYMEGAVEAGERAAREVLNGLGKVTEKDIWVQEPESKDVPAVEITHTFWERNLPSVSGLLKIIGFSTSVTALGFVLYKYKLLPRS
Procedure: as §1, §2

[4] = tested on: NO production in LPS-stimulated RAW 264.7 murine macrophages (iNOS); assay: Griess assay, NO production (iNOS) in LPS-stimulated RAW 264.7 macrophages; type: cell-based; conditions: for inhibition of NO production: 5 µM
Procedure: As a positive control, the nonsteroidal anti-inflammatory drug (NSAID) Indomethacin (Ind) was used.
Then, the cell culture medium was combined with an equal volume of Griess reagent at 40 mg/mL (ratio 1:1), and after a 30 min incubation with agitation, the optical density was measured at 540 nm. The levels of NO vs. LPS were calculated from the absorbance measurements using the following formula:(1) INO vs LPS (%)=ABSLPS−ABSSample/ABSLPS∗100 where ABSLPS represents the average absorbance of cells treated with LPS alone, and ABSsample represents the average absorbance of cells treated with both LPS and the tested complexes or Indomethacin.
NO production was induced by LPS (1 µg/mL). […] Salmon histograms: MTT assays performed in same experimental conditions in order to verify effect on RAW 264.7 cells’ viability of Indomethacin and tested complexes. Data were plotted as % of cell viability with respect to viability with LPS-only treatment (1 µg/mL).

[5] = molecular target: equine butyrylcholinesterase (eqBChE) (Equus caballus, UniProt P81908)
equine butyrylcholinesterase (eqBChE), sequence (P81908 whole entry): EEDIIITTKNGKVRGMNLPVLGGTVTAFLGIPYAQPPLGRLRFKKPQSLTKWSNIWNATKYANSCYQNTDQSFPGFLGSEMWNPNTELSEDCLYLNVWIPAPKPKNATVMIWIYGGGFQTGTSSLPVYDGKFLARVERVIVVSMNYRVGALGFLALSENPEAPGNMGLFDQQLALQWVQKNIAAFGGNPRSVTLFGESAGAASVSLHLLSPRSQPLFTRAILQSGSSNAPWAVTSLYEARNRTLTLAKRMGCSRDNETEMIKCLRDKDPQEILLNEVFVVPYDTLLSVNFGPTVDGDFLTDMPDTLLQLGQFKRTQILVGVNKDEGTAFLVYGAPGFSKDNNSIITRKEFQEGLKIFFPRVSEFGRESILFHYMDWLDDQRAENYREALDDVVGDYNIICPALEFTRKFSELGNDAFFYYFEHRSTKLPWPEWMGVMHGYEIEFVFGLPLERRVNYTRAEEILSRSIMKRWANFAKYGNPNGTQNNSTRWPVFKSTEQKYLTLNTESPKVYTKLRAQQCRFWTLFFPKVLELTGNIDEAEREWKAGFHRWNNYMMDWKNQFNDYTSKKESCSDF
Procedure: (§3) The enzyme-inhibiting properties of the Au and Ag complexes against electric eel acetylcholinesterase (eeAChE) and equine butyrylcholinesterase (eqBChE) were assessed via a modified Ellman assay. […] A buffer-only control was included. The inhibition potency (IC50) was calculated from triplicate dose–response data, presented as the mean ± SD.

[6] = molecular target: electric eel acetylcholinesterase (eeAChE) (Electrophorus electricus, UniProt O42275)
electric eel acetylcholinesterase (eeAChE), sequence (O42275 24-633): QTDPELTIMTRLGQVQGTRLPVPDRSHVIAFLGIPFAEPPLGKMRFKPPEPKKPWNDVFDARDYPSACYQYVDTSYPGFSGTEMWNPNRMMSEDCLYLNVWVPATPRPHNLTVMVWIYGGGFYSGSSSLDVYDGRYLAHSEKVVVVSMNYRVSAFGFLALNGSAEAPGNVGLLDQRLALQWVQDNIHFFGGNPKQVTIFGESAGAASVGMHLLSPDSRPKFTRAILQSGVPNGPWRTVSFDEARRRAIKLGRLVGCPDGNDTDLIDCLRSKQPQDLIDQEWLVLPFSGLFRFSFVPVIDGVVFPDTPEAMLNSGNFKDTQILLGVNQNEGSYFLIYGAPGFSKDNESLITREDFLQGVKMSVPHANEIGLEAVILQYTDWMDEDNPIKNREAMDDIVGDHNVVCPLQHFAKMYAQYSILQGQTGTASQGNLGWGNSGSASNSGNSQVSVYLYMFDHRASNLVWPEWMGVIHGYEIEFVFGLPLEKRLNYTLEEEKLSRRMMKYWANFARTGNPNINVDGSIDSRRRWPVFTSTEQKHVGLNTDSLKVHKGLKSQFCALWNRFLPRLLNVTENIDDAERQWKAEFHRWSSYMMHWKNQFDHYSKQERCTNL
Procedure: as §3

[7] = tested on: intracellular ROS production in 3T3-L1 murine fibroblasts; assay: Intracellular ROS (H2DCF-DA) in menadione-treated 3T3-L1 fibroblasts; type: cell-based; conditions: menadione 25 µM, 15 min; for ROS production reduced to, compared to Men treatment alone: 24 h
Procedure: N-acetyl-cysteine (NAC), a powerful antioxidant, was used as a positive control.
The antioxidant capacity of the Au and Ag complexes was evaluated in 3T3-L1 murine fibroblasts by assessing the intracellular reactive oxygen species (ROS) levels using a DCFH2-DA assay, following a previously established method [36]. The cells were seeded in 96-well plates and incubated with the tested complexes at concentrations of between 0.1 and 20 µM for a 24 h period. […] N-acetylcysteine (NAC), a recognized antioxidant, served as a positive control at 20 mM. […] The % of ROS production inhibition (IROS) vs. that of the menadione-treated cells was calculated using the following formula:(2) IROS vs Men (%)=FMen−FSample/FMen∗100 where FMen represents the average fluorescence of the cells treated with menadione alone, and Fsample represents the average fluorescence of the cells treated with both menadione and the tested complexes or NAC.
Data were plotted as % ROS inhibition with respect to inhibition with Men-only treatment.

[8] = mean ± S.D., three experiments in triplicate, read-out: IC50 (µM) hMAO-A
[9] = LPS 1 µg/mL, RAW 264.7, 24 h, read-out: IC50 (µM) NO Inhibition
[10] = read-out: IC50 (µM) eqBChE, mean ± S.D., three experiments in triplicate
[11] = read-out: IC50 (µM) eeAChE, mean ± S.D., three experiments in triplicate
[12] = Table S2, experimentally derived IC50, read-out: IC50 (μM), hMAOA (Table S2)
[13] = read-out: IC50 (μM), hBChE (Table S1), Table S1, experimentally derived IC50, column headed hBChE
[14] = read-out: IC50 (μM), hAChE (Table S1), Table S1, experimentally derived IC50, column headed hAChE

Row | SMILES | IC50 [1] [µM] | IC50 [2] [µM] | IC50 [3, 8] [µM] | IC50 [4, 9] [µM] | IC50 [5, 10] [µM] | IC50 [6, 11] [µM] | SI, hMAO-B selectivity index = IC50(hMAO-A)/IC50(hMAO-B) [1] | SI, eqBChE selectivity index = IC50(eeAChE)/IC50(eqBChE) [5] | IC50 [3, 12] [µM] | IC50 [5, 13] [µM] | IC50 [6, 14] [µM] | inhibition of NO production ([4]; 24 h, vs LPS-only treatment) | ROS production reduced to, compared to Men treatment alone ([7]; 1 µM) | IC50 ([4]; Table S3, experimentally derived IC50, read-out: IC50 (μM), iNOS (Table S3)) [µM] | ROS production reduced to, compared to Men treatment alone ([7]; 10 µM) | IC50 ([2]; Mus musculus, RAW264.7) [µM] | inhibition at 25 µM ([4]; Mus musculus, RAW264.7, 25 µM, 24 h, vs LPS-only treatment) [%] | IC50 ([4]; Mus musculus, RAW264.7, LPS 1 µg/mL, RAW 264.7, 24 h, read-out: IC50 (µM) NO Inhibition) [µM] | ROS formation reduced to [7]
1 | C[n+]1ccn(CC(O)c2ccccc2)[c]1[Ag-][O]C(=O)[C@@H]1CCCN1C(=O)OC(C)(C)C (some centres unmarked) [1aP] | > 25 | > 50 | > 25 | > 50 | > 25 | > 25 | – | – | – | – | – | – | – | – | – | – | – | – | –
2 | C[n+]1ccn(CC(O)c2ccccc2)[c]1[Au-][O]C(=O)[C@@H]1CCCN1C(=O)OC(C)(C)C (some centres unmarked) [1bP] | 3.78 ± 0.16 | > 50 | 1.32 ± 0.02 | > 50 | 6.19 ± 0.91 | 18.4 ± 1.43 | 0.35 | 2.97 | – | – | – | – | – | – | – | – | – | – | –
3 | C[n+]1c(Cl)c(Cl)n(CC(O)c2ccccc2)[c]1[Ag-][O]C(=O)[C@@H]1CCCN1C(=O)OC(C)(C)C (some centres unmarked) [2aP] | 9.82 ± 0.84 | > 50 | 15 ± 1.02 | > 50 | 18.2 ± 2.4 | > 25 | 1.53 | >1.37 | 15 ± 0.9 | 18.2 ± 0.02 | – | – | – | – | – | – | – | – | –
4 | C[n+]1c(Cl)c(Cl)n(CC(O)c2ccccc2)[c]1[Au-][O]C(=O)[C@@H]1CCCN1C(=O)OC(C)(C)C (some centres unmarked) [2bP] | 1.94 ± 0.09 | > 50 | 0.72 ± 0.02 | 32.3 ± 1.82 | 3.14 ± 0.33 | 4.68 ± 0.47 | 0.37 | 1.49 | – | 3.1 ± 0.02 | 4.7 ± 0.02 | – | – | – | – | – | – | – | –
5 | C[n+]1c(-c2ccccc2)c(-c2ccccc2)n(CC(O)c2ccccc2)[c]1[Ag-][O]C(=O)[C@@H]1CCCN1C(=O)OC(C)(C)C (some centres unmarked) [3aP] | > 25 | > 50 | 25 ± 2.95 | 30.9 ± 1.74 | 17.4 ± 0.98 | > 25 | – | >1.44 | – | – | – | approximately 8% | – | – | – | – | – | – | –
6 | C[n+]1c(-c2ccccc2)c(-c2ccccc2)n(CC(O)c2ccccc2)[c]1[Au-][O]C(=O)[C@@H]1CCCN1C(=O)OC(C)(C)C (some centres unmarked) [3bP] | 4.75 ± 0.75 | 20.3 ± 1.26 | 1.84 ± 0.18 | 4.88 ± 0.58 | > 25 | 5.89 ± 0.56 | 0.39 | – | – | – | – | about 52% | approximately 70% | 4.9 ± 0.5 | – | – | – | – | –
7 | C[n+]1[c]([Ag-][O]C(=O)[C@@H]2CCCN2C(=O)OC(C)(C)C)n(CC(O)c2ccccc2)c2ccccc21 (some centres unmarked) [4aP] | 10.4 ± 1.95 | > 50 | 3.32 ± 0.15 | > 50 | 5.19 ± 0.95 | 14 ± 0.72 | 0.32 | 2.68 | 3.3 ± 0.01 | 5.2 ± 0.05 | 13.9 ± 0.01 | – | – | – | – | – | – | – | –
8 | C[n+]1[c]([Au-][O]C(=O)[C@@H]2CCCN2C(=O)OC(C)(C)C)n(CC(O)c2ccccc2)c2ccccc21 (some centres unmarked) [4bP] | 2.1 ± 0.2 | 12.1 ± 1.03 | 0.0713 | 13.1 ± 0.92 | 0.45 ± 0.06 | 3.72 ± 0.44 | 0.03 | 8.27 | – | – | 3.7 ± 0.02 | – | – | – | approximately 60% | – | – | – | –
9 | COc1ccc2c(c1)c(CC(=O)O)c(C)n2C(=O)c1ccc(Cl)cc1 [Indomethacin, reference compound] | – | – | – | – | – | – | – | – | – | – | – | – | – | – | – | > 50 | ~20 | > 50 | –
10 | CC(=O)N[C@@H](CS)C(=O)O [NAC, N-acetyl-cysteine, reference compound] | – | – | – | – | – | – | – | – | – | – | – | – | – | – | – | – | – | – | approximately 70%
